Reference: patent US8916593B2, “Alkoxy-substituted 2-aminopyridines as ALK inhibitors” (Pfizer Inc., priority 2010, dated 2014)
Structures can show the parent of a compound that is named as a salt.

Experiments:
[1] = target: T1, ALK enzyme (Homo sapiens, UniProt Q9UM73); experiment: ALK enzymatic activity assay 1; assay type: biochemical
T1 construct: purchased Invitrogen PV4185
Method: ALK Enzymatic Activity Assay 1
Compounds were added at a final concentration of 1% DMSO in half-log dilutions, starting at 20 μM final concentration. The reactions were initiated by the addition of 10 μL of peptide/ATP mix to 10 μL enzyme and 2 μL of compound in 384-well plate. […] On the 12-sipper chip, substrate and phosphorylated product were separated with an upstream voltage of −2650 V, a downstream voltage of −500 V, and a screen pressure of −1.5 psi. The relative peak heights of substrate and product were measured and ratios were calculated using HTS Well Analyzer Software version 5.2.43 from the manufacturer.

[2] = target: T2, cMet enzyme (Homo sapiens, UniProt P08581); experiment: cMet enzymatic activity assay; assay type: biochemical; settings: purified cMet enzyme 7.5 nM, ATP 17 μM (Km)
T2 construct: RTC Lot#032006
Method: cMet Enzymatic Activity Assay
Compounds were added at a final concentration of 2% DMSO in half-log dilutions, starting at 20 μM final concentration. The reactions were initiated by addition of 10 μL of peptide/ATP mix to 10 μL enzyme and 5 μL of compound in 384-well plate. […] Substrate and phosphorylated product were separated with an upstream voltage of −2650 V, a downstream voltage of −500V, and a screen pressure of −1.5 psi. The relative peak heights of substrate and product were measured and ratios were calculated using HTS Well Analyzer Software version 5.2.43 from the manufacturer.

[3] = target: T3, human recombinant wild-type ALK kinase domain (amino acids 1093-1411) (Homo sapiens, UniProt Q9UM73); experiment: ALK enzyme assay 2 (microfluidic mobility shift assay); assay type: biochemical;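 also: kinase reaction run 1 h at room temperature, conversion quantified by electrophoretic separation of fluorescent peptide substrate from phosphorylated product, about 15-20% turnover without inhibitor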
T3 construct: ALK kinase domain (amino acids 1093-1411); made in house
Method: The reactions were incubated for 1 h at room temperature, stopped by the addition of 0.1 M EDTA, pH 8, and the extent of reactions (˜15-20% conversion with no inhibitor) was determined after electrophoretic separation of the fluorescently labeled peptide substrate and phosphorylated product on an LabChip EZ Reader II (Caliper Life Sciences, Hopkinton, Mass.).

[4] = target: EML4-ALK wt v1 in NIH-3T3 cells (Homo sapiens, UniProt Q9UM73)
Chain of EML4-ALK wt v1 in NIH-3T3 cells (Q9UM73 with tags, fused parts or gaps): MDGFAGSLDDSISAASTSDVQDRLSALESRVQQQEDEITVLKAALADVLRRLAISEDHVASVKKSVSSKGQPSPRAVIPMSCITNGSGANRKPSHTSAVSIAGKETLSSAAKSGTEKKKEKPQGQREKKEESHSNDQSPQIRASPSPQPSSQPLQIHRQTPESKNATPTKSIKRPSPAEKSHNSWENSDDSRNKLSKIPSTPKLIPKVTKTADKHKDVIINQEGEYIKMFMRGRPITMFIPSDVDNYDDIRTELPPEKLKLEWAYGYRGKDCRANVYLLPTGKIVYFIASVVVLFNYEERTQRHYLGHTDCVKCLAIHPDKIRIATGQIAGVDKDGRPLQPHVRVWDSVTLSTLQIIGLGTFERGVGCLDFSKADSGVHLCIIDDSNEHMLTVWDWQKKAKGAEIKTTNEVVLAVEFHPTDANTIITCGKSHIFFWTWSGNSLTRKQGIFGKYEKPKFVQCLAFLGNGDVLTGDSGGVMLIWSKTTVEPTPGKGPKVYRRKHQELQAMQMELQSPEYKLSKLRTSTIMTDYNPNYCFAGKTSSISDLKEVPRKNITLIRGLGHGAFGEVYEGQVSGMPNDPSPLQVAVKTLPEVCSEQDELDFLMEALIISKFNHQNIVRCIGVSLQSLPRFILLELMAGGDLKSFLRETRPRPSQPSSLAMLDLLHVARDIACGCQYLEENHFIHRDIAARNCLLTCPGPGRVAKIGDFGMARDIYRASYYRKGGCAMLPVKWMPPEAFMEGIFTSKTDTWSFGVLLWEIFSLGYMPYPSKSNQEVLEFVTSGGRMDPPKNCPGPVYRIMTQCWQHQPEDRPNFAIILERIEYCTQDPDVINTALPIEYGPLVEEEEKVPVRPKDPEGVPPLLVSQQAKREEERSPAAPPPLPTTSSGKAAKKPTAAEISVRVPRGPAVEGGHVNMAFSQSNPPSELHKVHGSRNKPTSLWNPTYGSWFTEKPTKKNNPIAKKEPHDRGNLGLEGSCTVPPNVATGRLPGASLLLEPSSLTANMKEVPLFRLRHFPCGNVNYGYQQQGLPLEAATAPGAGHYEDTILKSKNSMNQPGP

T1 sequence (Q9UM73 19-1620): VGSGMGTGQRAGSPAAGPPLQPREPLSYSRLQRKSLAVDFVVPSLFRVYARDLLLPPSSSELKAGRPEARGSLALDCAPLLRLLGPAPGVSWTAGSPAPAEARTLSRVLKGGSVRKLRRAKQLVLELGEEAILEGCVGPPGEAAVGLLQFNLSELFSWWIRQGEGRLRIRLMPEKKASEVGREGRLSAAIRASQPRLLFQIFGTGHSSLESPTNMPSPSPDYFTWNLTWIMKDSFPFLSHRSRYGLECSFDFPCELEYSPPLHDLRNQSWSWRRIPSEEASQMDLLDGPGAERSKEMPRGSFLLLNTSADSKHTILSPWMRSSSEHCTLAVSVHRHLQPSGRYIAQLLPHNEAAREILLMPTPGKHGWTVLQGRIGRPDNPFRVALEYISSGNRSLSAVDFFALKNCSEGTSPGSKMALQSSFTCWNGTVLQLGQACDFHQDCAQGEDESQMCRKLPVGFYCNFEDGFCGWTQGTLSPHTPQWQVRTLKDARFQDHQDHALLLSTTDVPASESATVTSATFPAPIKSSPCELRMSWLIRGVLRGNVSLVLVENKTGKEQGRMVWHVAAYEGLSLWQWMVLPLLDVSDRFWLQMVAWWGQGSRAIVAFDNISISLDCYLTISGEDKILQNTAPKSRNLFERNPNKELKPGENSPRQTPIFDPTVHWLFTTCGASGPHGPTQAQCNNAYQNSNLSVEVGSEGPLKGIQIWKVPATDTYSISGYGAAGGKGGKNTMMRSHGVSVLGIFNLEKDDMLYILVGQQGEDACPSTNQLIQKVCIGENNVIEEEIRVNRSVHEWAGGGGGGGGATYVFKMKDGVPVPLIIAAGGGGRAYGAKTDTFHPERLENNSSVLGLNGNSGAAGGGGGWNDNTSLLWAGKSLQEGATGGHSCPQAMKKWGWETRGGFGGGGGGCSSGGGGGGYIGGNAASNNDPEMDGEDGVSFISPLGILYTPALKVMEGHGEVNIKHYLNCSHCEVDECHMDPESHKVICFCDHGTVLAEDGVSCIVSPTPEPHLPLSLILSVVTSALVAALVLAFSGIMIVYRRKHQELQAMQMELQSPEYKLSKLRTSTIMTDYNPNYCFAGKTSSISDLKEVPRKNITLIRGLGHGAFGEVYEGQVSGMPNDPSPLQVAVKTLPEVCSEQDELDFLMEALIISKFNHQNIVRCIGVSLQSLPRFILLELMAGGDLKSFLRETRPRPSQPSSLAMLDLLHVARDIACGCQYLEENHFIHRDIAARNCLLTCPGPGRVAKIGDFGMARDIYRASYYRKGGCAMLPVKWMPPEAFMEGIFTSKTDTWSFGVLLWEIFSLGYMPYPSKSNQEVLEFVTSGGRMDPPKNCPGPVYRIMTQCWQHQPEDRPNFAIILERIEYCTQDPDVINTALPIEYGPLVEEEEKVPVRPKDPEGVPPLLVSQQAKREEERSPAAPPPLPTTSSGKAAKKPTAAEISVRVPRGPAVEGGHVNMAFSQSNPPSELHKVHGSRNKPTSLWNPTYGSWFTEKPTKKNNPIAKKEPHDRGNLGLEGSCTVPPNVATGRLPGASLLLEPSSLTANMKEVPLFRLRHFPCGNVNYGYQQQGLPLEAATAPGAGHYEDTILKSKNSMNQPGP
T2 sequence (P08581 25-1390): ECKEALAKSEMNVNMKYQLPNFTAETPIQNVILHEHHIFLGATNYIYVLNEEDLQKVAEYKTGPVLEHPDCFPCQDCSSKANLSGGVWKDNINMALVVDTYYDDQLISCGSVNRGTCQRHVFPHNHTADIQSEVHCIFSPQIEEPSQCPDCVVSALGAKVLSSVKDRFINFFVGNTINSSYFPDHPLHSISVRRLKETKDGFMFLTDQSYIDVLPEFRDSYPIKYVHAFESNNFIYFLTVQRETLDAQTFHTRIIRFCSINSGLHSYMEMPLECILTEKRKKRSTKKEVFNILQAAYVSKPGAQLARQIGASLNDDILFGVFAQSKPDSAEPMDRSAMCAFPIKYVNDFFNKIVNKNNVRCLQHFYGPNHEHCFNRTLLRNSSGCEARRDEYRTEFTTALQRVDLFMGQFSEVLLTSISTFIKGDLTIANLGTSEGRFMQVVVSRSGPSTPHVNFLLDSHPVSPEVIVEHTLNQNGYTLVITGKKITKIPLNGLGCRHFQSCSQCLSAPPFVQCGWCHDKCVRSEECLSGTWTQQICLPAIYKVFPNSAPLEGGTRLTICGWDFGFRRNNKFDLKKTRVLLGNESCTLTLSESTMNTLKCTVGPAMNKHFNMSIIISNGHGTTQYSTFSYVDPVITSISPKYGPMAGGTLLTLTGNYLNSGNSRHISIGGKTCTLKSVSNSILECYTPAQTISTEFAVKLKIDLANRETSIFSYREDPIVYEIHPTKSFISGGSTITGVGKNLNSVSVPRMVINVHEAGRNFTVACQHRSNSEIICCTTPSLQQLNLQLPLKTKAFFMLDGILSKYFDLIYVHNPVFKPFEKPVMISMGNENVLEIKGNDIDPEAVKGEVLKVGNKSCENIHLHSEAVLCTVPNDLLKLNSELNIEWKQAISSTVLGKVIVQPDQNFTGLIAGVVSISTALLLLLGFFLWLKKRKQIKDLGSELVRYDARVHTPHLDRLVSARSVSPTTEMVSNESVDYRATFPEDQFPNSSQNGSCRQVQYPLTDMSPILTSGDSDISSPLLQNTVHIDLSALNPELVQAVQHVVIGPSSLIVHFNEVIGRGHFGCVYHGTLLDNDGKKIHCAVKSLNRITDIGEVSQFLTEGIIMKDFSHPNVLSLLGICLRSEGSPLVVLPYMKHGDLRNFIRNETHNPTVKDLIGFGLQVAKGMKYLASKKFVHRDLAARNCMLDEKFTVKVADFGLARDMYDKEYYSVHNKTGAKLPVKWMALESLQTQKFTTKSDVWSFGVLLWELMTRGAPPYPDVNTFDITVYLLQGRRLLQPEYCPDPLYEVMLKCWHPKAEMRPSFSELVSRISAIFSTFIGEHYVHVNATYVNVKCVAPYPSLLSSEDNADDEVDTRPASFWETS
T3 sequence (Q9UM73 1093-1411): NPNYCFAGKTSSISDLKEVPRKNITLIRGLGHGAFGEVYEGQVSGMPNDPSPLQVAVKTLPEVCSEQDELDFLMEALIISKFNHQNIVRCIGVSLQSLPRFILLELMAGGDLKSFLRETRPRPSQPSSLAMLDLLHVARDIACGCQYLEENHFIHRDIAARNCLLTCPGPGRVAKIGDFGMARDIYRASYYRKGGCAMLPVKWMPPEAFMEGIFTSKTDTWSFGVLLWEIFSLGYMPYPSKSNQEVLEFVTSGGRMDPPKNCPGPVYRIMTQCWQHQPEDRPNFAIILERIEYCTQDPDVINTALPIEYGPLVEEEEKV

SMILES | IC50 [1] | IC50 [2] | Ki [3] | IC50 [4]
COc1ccc(F)cc1[C@@H](C)Oc1cc(-c2cccnc2CO)cnc1N [Example 27, {6′-amino-5′-[(1R)-1-(5-fluoro-2-methoxyphenyl)-ethoxy]-3,3′-bipyridin-2-yl}methanol] | 47.3 nM | > 15.4 µM | 3.1 nM | 138 nM
CC(Oc1cc(-c2ccnn2C)cnc1N)c1cc(F)ccc1-n1ccnn1 (stereo not shown) [Example 32, 3-{1-[5-fluoro-2-(1H-1,2,3-triazol-1-yl)phenyl]-ethoxy}-5-(1-methyl-1H-pyrazol-5-yl)pyridin-2-amine] | 105 nM | > 20 µM | 36 nM | 883 nM
COc1ncc(F)cc1C(C)Oc1cc(-c2ccnn2C)cnc1N (stereo not shown) [Example 33, 3-[1-(5-fluoro-2-methoxypyridin-3-yl)ethoxy]-5-(1-methyl-1H-pyrazol-5-yl)pyridin-2-amine monohydrochloride] | 89.2 nM | > 20 µM | 4.8 nM | 380 nM
COc1ncc(F)cc1[C@@H](C)Oc1cc(-c2ccnn2C)cnc1N [Example 34, 3-[(1R)-1-(5-fluoro-2-methoxypyridin-3-yl)ethoxy]-5-(1-methyl-1H-pyrazol-5-yl)pyridin-2-amine] | 71.1 nM | > 17.8 µM | 3.8 nM | 302 nM
CC(Oc1cc(-c2ccnn2C)cnc1N)c1cc(F)ccc1C#N (stereo not shown) [Example 36, 2-(1-{[2-amino-5-(1-methyl-1H-pyrazol-5-yl)pyridin-3-yl]oxy}ethyl)-4-fluorobenzonitrile monohydrochloride] | 120 nM | > 15.8 µM | 22 nM | 862 nM
CC(Oc1cc(-c2ccnn2C)cnc1N)c1cc(F)ccc1-n1cccn1 (stereo not shown) [Example 37, 3-{1-[5-fluoro-2-(1H-pyrazol-1-yl)phenyl]-ethoxy}-5-(1-methyl-1H-pyrazol-5-yl)pyridin-2-amine] | 70.3 nM | 8.09 µM | 1.55 nM | 147 nM
COc1ncc(F)cc1C(C)Oc1cc(-c2c[nH]nc2C)cnc1N (stereo not shown) [Example 41, 3-[1-(5-fluoro-2-methoxypyridin-3-yl)ethoxy]-5-(3-methyl-1H-pyrazol-4-yl)pyridin-2-amine] | 15.7 nM | 5.59 µM | 0.922 nM | 58.6 nM
CC(Oc1cc(-c2ccnn2C)cnc1N)c1cc(F)cc2scnc12 (stereo not shown) [Example 42, 3-[1-(6-fluoro-1,3-benzothiazol-4-yl)ethoxy]-5-(1-methyl-1H-pyrazol-5-yl)pyridin-2-amine] | 58.1 nM | > 15.9 µM | 2.05 nM | 263 nM
Cc1n[nH]cc1-c1cnc(N)c(OC(C)c2cc(F)ccc2Cl)c1 (stereo not shown) [Example 45, 3-[1-(2-chloro-5-fluorophenyl)ethoxy]-5-(3-methyl-1H-pyrazol-4-yl)pyridin-2-amine] | 75.6 nM | 4.16 µM | 1.57 nM | 106 nM
Cc1n[nH]cc1-c1cnc(N)c(OC(C)c2cc(F)ccc2-n2cccn2)c1 (stereo not shown) [Example 47, 3-{1-[5-fluoro-2-(1H-pyrazol-1-yl)phenyl]-ethoxy}-5-(3-methyl-1H-pyrazol-4-yl)pyridin-2-amine] | 70.5 nM | 2.85 µM | < 0.2 nM | 45.7 nM
COc1ccncc1-c1cnc(N)c(OC(C)c2cc(F)ccc2OC)c1 (stereo not shown) [Example 50, 5-[1-(5-fluoro-2-methoxyphenyl)-ethoxy]-4′-methoxy-3,3′-bipyridin-6-amine] | 50.2 nM | 5.07 µM | 0.739 nM | 58.4 nM
CC(Oc1cc(-c2ccnn2C)cnc1N)c1cc(F)cc2cccnc12 (stereo not shown) [Example 51, 3-[1-(6-fluoroquinolin-8-yl)ethoxy]-5-(1-methyl-1H-pyrazol-5-yl)pyridin-2-amine] | 45.2 nM | 7.87 µM | 61 nM | 1450 nM
Cc1n[nH]c(C)c1-c1cnc(N)c(OC(C)c2cc(F)ccc2-n2cccn2)c1 (stereo not shown) [Example 52, 5-(3,5-dimethyl-1H-pyrazol-4-yl)-3-{1-[5-fluoro-2-(1H-pyrazol-1-yl)phenyl]-ethoxy}pyridin-2-amine] | 73.3 nM | 10.4 µM | 1.1 nM | 14.5 nM
COc1ccc(F)cc1[C@@H](C)Oc1cc(-c2c(C)nn(CCO)c2C)cnc1N [Example 53, 2-(4-{6-amino-5-[(1R)-1-(5-fluoro-2-methoxyphenyl)-ethoxy]pyridin-3-yl}-3,5-dimethyl-1H-pyrazol-1-yl)ethanol] | 27 nM | 4.44 µM | 0.401 nM | 23.3 nM
COc1ccc(F)cc1C(C)Oc1cc(-c2c(C)noc2C)cnc1N (stereo not shown) [Example 54, 5-(3,5-dimethylisoxazol-4-yl)-3-[1-(5-fluoro-2-methoxyphenyl)-ethoxy]pyridin-2-amine] | 47.2 nM | > 18.2 µM | 1.3 nM | 194 nM
CC(Oc1cc(-c2ccnn2C)nnc1N)c1cc(F)ccc1-n1cccn1 (stereo not shown) [Example 55, 4-{1-[5-fluoro-2-(1H-pyrazol-1-yl)phenyl]ethoxy}-6-(1-methyl-1H-pyrazol-5-yl)pyridazin-3-amine] | 87.6 nM | > 20 µM | 43 nM | 1760 nM
COc1ccc(F)cc1[C@@H](C)Oc1cc(-c2ccnn2C)nnc1N [Example 56, 4-[(1R)-1-(5-fluoro-2-methoxyphenyl)ethoxy]-6-(1-methyl-1H-pyrazol-5-yl)pyridazin-3-amine] | 47.5 nM | > 20 µM | 6.4 nM | 361 nM
COc1ccc(F)cc1C(C)Oc1nc(-c2cn(C)c(C)n2)cnc1N (stereo not shown) [Example 57, 5-(1,2-dimethyl-1H-imidazol-4-yl)-3-[1-(5-fluoro-2-methoxyphenyl)ethoxy]pyrazin-2-amine] | 58.7 nM | > 20 µM | 5.4 nM | 245 nM
COc1ccc(F)cc1C(C)Oc1nc(-c2cn(C)cn2)cnc1N (stereo not shown) [Example 58, 3-[1-(5-fluoro-2-methoxyphenyl)ethoxy]-5-(1-methyl-1H-imidazol-4-yl)pyrazin-2-amine] | 86.5 nM | > 20 µM | 1.3 nM | 159 nM
CC(Oc1nc(-c2cn(C)cn2)cnc1N)c1cc(F)ccc1Cl (stereo not shown) [Example 59, 3-[1-(2-chloro-5-fluorophenyl)ethoxy]-5-(1-methyl-1H-imidazol-4-yl)pyrazin-2-amine] | 126 nM | > 20 µM | 13 nM | 631 nM
COc1ccc(F)cc1C(C)Oc1nc(-c2nccn2C)cnc1N (stereo not shown) [Example 60, 3-[1-(5-fluoro-2-methoxyphenyl)ethoxy]-5-(1-methyl-1H-imidazol-2-yl)pyrazin-2-amine] | 67.3 nM | > 20 µM | 6.4 nM | 555 nM
CC(Oc1cc(-c2ccnn2C)cnc1N)c1cc(F)ccc1-c1ncco1 (stereo not shown) [Example 62, 3-{1-[5-fluoro-2-(1,3-oxazol-2-yl)phenyl]ethoxy}-5-(1-methyl-1H-pyrazol-5-yl)pyridin-2-amine] | 50.5 nM | 2.81 µM | 4.52 nM | 191 nM
